Experiments:
[1] = molecular target: T1, human placental aromatase (Homo sapiens, UniProt P11511); assay: Inhibition of human placental aromatase in vitro (3H2O release from labelled androstenedione, microsomal fraction); type: biochemical; conditions: for Relative potency: versus aminoglutethimide (1 by definition)
T1 construct: isolated from the microsomal fraction of human placental tissue; from tissue; host or cells: human placenta, microsomal fraction
T1 sequence (P11511 1-503): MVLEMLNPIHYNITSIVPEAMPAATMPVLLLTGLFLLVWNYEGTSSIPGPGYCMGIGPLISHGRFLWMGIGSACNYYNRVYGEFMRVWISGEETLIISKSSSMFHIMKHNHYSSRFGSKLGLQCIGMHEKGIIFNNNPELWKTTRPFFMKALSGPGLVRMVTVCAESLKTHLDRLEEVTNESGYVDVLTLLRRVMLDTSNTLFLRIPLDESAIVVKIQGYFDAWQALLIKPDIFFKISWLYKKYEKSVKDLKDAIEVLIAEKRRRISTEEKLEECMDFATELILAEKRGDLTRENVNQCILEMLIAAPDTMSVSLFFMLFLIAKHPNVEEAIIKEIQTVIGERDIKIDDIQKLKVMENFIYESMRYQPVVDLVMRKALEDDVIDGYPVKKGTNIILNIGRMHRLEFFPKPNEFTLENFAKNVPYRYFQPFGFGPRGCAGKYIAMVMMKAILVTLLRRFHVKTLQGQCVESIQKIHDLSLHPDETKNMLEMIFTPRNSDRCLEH
Description: The assay of the aromatase inhibition in vitro was carried out as follows: the enzyme system was isolated from the microsomal fraction of human placental tissue according to standard procedure.
All incubations were carried out in a shaking water bath at 37° C. in air in 10 mM potassium phosphate buffer, pH 7.5, which contained 100 mM Kcl, 1 mM EDTA and 1 mM dithiothreitol. The experiments were carried out in 1 ml incubation volume containing 50 nM 4-[^3 H]androstenedione, various concentrations of the inhibitors. 100 μm NADPH and 0.05 mg of microsomal proteins. After 15 minutes of incubation the reaction was stopped by the addition of chloroform (5 ml).
After centrifugation at 1500 xg for 5 minutes, aliquots (0.5 ml) were removed from the water phase for determination of ^3 H2 O formed.

aromatase = conditions: reported in literature; cited from earlier work

Row | IC50 ([1]; human placental microsomes, 50 nM 4-[3H]androstenedione, 100 μm NADPH, pH 7.5, 37° C., 15 min) | Relative potency [1] | Compound | aromatase-inhibiting action (in words) (aromatase)
1 | 0.33 µM | 6.4 | Nc1ccc(C(C(=O)NC2CCCCC2)C(F)(F)F)cc1 (racemic) [FCE 25331, N-cyclohexyl-2-(4'-aminophenyl)-3,3,3-trifluoropropanamide] | –
2 | – | 1.7 | Nc1ccc(C2CCCCC2)cc1 [4-cyclohexylaniline] | more or less selective aromatase-inhibiting action
3 | – | – | CCC1(c2ccncc2)CCC(=O)NC1=O (centres unmarked) [4-pyridyl-3-ethyl-2,6-piperidinedione] | more or less selective aromatase-inhibiting action

Reference: patent US4847295A, “Cycloalkyl-substituted 4-aminophenyl halo derivatives and process for their preparation” (Farmitalia Carlo Erba S.r.l., priority 1987, dated 1989)
